Assay results: PMC3961306, “Comparison of the Cancer Gene Targeting and Biochemical Selectivities of All Targeted Kinase Inhibitors Approved for Clinical Use” (PLoS ONE, 2014)

How the values were obtained:
Assay in all cases: Kinase profiling in a biochemical assay panel (mobility shift assays and ELISA), %-inhibition at 1 μM; selectivity entropy
[1] = target: T1, panel of more than 300 wild-type and mutant kinases (313 kinase panel) (Homo sapiens, UniProt P36888)
T1 sequence (P36888 27-993): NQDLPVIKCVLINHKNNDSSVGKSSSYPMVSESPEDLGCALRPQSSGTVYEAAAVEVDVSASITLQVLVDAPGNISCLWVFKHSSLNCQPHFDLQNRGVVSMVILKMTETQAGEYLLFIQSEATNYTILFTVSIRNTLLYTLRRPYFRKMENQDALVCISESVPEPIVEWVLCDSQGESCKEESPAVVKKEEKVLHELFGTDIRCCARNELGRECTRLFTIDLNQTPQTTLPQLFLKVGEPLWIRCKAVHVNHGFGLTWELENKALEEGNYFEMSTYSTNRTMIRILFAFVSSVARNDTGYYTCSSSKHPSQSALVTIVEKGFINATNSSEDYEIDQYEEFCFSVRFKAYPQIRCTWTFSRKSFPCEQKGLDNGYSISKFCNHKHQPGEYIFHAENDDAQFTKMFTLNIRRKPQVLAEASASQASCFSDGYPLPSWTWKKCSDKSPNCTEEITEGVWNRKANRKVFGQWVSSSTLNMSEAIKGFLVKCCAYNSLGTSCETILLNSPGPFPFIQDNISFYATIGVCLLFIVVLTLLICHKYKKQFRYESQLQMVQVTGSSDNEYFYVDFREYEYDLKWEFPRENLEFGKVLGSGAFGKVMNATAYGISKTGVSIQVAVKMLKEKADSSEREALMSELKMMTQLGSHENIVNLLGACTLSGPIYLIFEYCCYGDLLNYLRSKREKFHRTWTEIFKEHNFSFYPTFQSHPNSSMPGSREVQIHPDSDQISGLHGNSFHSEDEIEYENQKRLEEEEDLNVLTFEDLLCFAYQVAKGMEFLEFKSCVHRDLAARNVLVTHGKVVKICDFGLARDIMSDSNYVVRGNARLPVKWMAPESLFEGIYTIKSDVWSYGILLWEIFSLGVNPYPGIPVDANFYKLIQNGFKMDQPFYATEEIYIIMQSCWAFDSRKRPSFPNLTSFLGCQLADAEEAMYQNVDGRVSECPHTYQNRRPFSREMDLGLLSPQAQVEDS

[2] = target: panel of more than 300 wild-type and mutant kinases (313 kinase panel) (Homo sapiens, UniProt P41240)
[3] = target: T2, panel of more than 300 wild-type and mutant kinases (313 kinase panel) (Homo sapiens, UniProt Q08881)
T2 sequence (Q08881 1-620): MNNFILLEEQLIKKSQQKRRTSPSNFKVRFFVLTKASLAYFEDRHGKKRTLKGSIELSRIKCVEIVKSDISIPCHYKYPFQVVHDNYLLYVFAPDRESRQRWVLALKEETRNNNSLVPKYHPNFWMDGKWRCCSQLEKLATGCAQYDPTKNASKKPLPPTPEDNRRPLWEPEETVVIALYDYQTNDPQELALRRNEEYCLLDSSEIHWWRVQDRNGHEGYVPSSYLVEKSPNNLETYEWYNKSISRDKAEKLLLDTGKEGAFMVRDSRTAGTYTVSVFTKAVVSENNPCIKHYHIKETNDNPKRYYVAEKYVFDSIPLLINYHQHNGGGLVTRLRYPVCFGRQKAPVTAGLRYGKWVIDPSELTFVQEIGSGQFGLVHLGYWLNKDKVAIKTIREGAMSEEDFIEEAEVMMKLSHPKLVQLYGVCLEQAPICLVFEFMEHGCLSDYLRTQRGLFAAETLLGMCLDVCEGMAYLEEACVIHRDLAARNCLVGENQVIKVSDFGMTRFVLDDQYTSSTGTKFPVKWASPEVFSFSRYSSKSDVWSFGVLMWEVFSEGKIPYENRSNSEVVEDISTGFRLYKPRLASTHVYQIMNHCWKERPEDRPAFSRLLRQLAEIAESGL

[4] = target: panel of more than 300 wild-type and mutant kinases (313 kinase panel) (Homo sapiens, UniProt Q15759)
[5] = target: panel of more than 300 wild-type and mutant kinases (313 kinase panel) (Homo sapiens, UniProt Q96RG2)
[6] = target: T3, panel of more than 300 wild-type and mutant kinases (313 kinase panel) (Homo sapiens, UniProt Q9UHD2)
T3 sequence (Q9UHD2 1-729): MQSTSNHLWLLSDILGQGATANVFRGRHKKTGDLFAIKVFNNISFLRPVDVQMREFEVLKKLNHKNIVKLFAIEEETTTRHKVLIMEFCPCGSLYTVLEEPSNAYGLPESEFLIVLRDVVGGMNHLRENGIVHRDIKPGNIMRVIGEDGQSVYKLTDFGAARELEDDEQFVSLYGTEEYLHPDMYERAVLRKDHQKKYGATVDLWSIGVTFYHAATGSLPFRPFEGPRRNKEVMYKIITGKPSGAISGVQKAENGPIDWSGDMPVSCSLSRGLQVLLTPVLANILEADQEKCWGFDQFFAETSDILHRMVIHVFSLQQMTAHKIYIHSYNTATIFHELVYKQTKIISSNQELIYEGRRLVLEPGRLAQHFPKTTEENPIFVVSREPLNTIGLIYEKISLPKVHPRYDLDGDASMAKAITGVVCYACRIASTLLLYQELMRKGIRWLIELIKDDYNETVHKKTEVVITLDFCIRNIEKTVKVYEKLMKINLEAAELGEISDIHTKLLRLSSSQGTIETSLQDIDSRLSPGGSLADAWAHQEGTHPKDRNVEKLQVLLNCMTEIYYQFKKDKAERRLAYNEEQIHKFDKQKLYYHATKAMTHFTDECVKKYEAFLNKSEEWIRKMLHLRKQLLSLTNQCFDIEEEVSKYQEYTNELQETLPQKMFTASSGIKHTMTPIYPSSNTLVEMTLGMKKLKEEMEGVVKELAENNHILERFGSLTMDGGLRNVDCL

[7] = target: panel of more than 300 wild-type and mutant kinases (313 kinase panel) (Homo sapiens, UniProt Q13557)
panel of more than 300 wild-type and mutant kinases (313 kinase panel) (Homo sapiens, UniProt Q13557), sequence (Q13557 whole entry, change not shown): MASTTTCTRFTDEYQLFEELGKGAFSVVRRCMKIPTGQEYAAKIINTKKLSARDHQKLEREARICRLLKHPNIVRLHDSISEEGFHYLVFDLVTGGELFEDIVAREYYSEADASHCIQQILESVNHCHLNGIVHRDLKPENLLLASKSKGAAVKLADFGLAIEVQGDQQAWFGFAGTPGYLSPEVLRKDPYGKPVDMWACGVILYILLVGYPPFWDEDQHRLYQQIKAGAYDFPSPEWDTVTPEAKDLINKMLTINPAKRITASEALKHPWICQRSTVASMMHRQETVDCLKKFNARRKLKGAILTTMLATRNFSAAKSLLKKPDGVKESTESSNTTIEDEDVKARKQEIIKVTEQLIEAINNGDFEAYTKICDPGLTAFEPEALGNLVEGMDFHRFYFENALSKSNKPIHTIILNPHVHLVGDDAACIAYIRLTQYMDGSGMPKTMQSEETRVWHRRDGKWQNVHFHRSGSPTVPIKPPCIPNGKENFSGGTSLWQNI

panel of more than 300 wild-type and mutant kinases (313 kinase panel) (Homo sapiens, UniProt P41240), sequence (P41240 whole entry, change not shown): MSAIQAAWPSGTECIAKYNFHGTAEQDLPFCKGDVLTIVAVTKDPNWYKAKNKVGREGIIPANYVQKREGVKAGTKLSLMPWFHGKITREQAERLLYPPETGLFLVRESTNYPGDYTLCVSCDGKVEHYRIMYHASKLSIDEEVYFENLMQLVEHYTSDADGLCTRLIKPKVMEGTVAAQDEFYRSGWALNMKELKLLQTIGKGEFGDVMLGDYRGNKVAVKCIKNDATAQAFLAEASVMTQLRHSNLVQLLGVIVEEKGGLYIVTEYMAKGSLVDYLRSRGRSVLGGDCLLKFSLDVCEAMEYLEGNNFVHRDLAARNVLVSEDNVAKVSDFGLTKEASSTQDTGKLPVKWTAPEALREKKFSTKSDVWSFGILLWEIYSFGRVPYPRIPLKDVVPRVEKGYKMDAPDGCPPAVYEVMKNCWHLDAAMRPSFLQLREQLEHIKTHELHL
panel of more than 300 wild-type and mutant kinases (313 kinase panel) (Homo sapiens, UniProt Q96RG2), sequence (Q96RG2 whole entry, change not shown): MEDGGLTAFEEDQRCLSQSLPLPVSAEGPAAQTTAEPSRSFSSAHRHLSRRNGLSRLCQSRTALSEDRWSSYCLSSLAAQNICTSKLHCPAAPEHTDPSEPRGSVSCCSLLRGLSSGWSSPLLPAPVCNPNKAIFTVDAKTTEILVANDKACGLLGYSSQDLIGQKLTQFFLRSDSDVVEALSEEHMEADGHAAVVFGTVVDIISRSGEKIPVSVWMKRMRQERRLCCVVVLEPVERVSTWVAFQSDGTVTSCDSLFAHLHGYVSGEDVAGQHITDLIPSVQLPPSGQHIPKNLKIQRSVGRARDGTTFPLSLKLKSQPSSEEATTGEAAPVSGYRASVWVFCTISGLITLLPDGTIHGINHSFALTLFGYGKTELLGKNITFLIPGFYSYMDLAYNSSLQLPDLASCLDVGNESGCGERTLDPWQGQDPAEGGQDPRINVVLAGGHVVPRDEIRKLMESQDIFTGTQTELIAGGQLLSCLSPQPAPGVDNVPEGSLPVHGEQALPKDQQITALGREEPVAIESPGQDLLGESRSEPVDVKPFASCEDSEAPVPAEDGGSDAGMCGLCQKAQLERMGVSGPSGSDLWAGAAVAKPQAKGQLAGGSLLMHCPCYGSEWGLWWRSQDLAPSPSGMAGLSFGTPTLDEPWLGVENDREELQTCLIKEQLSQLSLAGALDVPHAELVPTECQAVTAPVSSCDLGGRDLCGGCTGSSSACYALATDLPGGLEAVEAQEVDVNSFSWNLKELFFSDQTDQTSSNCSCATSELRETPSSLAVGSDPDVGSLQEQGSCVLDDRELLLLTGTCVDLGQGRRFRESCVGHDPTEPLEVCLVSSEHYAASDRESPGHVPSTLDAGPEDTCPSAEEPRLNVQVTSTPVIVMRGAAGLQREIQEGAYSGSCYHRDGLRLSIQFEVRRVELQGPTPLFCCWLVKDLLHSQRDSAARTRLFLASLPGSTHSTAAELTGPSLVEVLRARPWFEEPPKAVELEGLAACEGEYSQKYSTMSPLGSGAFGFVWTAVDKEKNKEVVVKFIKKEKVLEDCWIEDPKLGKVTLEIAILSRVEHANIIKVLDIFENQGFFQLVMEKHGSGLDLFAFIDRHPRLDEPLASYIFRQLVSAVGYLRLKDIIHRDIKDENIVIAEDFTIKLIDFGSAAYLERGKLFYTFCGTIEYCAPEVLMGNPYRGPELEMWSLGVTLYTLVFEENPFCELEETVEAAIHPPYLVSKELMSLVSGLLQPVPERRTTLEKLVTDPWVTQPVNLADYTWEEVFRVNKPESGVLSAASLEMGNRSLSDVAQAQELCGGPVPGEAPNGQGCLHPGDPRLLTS

Structure (SMILES)	%-inhibition of FLT3 ([1]; kinase FLT3, compound at 1 μM) [%]	%-inhibition of CSK ([2]; kinase CSK, compound at 1 μM) [%]	%-inhibition of ITK ([3]; kinase ITK, compound at 1 μM) [%]	%-inhibition of p38β ([4]; kinase p38β, 1 μM) [%]	%-inhibition of PASK ([5]; kinase PASK, 1 μM) [%]	%-inhibition of TBK1 ([6]; kinase TBK1, 1 μM) [%]	%-inhibition, CaMK2δ ([7]; kinase CaMK2δ, 1 μM compound) [%]	%-inhibition of ITK ([3]; 1 µM) [%]	%-inhibition, CaMK2δ ([7]; 1 µM) [%]	%-inhibition of p38β ([4]; 1 µM) [%]	%-inhibition of PASK ([5]; 1 µM) [%]	%-inhibition of TBK1 ([6]; 1 µM) [%]	%-inhibition of CSK ([2]; 1 µM) [%]	%-inhibition of FLT3 ([1]; 1 µM) [%]
COc1cc(Nc2c(C#N)cnc3cc(OCCCN4CCN(C)CC4)c(OC)cc23)c(Cl)cc1Cl [bosutinib]	77	84	13	-0.299	-0.0941	32								
COc1cc2nccc(Oc3ccc(NC(=O)C4(C(=O)Nc5ccc(F)cc5)CC4)cc3)c2cc1OC [cabozantinib]	91	60	16	33	-2.16	-0.506	0.942							
C[C@@H](Oc1cc(-c2cnn(C3CCNCC3)c2)cnc1N)c1c(Cl)ccc(F)c1Cl [crizotinib]		9	63		1	1.42	4							
CC(C)(C)c1nc(-c2cccc(NS(=O)(=O)c3c(F)cccc3F)c2F)c(-c2ccnc(N)n2)s1 [dabrafenib]	41	98	49	5.3	1.12	-1.15	-0.23							
Cc1nc(Nc2ncc(C(=O)Nc3c(C)cccc3Cl)s2)cc(N2CCN(CCO)CC2)n1 [dasatinib]							-7.61							
C#Cc1cccc(Nc2ncnc3cc(OCCOC)c(OCCOC)cc23)c1 [erlotinib]								6.51	-11	-4	-9	26		
CO[C@H]1C[C@@H]2CC[C@@H](C)[C@@](O)(O2)C(=O)C(=O)N2CCCC[C@H]2C(=O)O[C@H]([C@H](C)C[C@@H]2CC[C@@H](OCCO)[C@H](OC)C2)CC(=O)[C@H](C)/C=C(\C)[C@@H](O)[C@@H](OC)C(=O)[C@H](C)C[C@H](C)/C=C/C=C/C=C/1C [everolimus]	2.25	-7	-3.61	-4.49	-9	-5	-2.12							
O=S(=O)(c1cccc2cnccc12)N1CCCNCC1 [fasudil]	22	-3.28	-9	-2.17	2.25	-5	3.46							
CS(=O)(=O)CCNCc1ccc(-c2ccc3ncnc(Nc4ccc(OCc5cccc(F)c5)c(Cl)c4)c3c2)o1 [lapatinib]	-3.74		-1.89	-10	-5	-14	-33						1.88	
Cc1cn(-c2cc(NC(=O)c3ccc(C)c(Nc4nccc(-c5cccnc5)n4)c3)cc(C(F)(F)F)c2)cn1 [nilotinib]			-0.451	96	-3				1.2			6	78	60
Cc1ccc(Nc2nccc(N(C)c3ccc4c(C)n(C)nc4c3)n2)cc1S(N)(=O)=O [pazopanib]		12	28	18	-2.41	-2.68	1.54							
Cc1ccc(C(=O)Nc2ccc(CN3CCN(C)CC3)c(C(F)(F)F)c2)cc1C#Cc1cnc2cccnn12 [ponatinib]	99		86	101	25									
CNC(=O)c1cc(Oc2ccc(NC(=O)Nc3ccc(Cl)c(C(F)(F)F)c3)c(F)c2)ccn1 [regorafenib]	68	28	2.43	98	0.282	-2.13	1.53							
N#CC[C@H](C1CCCC1)n1cc(-c2ncnc3[nH]ccc23)cn1 [ruxolitinib]		-0.827	30		0.47	21	81			-0.778				18
CCN(CC)CCNC(=O)c1c(C)[nH]c(/C=C2\C(=O)Nc3ccc(F)cc32)c1C [sunitinib]						56								
CO[C@H]1C[C@@H]2CC[C@@H](C)[C@@](O)(O2)C(=O)C(=O)N2CCCC[C@H]2C(=O)O[C@H]([C@H](C)C[C@@H]2CC[C@@H](OC(=O)C(C)(CO)CO)[C@H](OC)C2)CC(=O)[C@H](C)/C=C(\C)[C@@H](O)[C@@H](OC)C(=O)[C@H](C)C[C@H](C)/C=C/C=C/C=C/1C [temsirolimus]	5	-1.56	-1.7	-2	-8	-2.23	-4							
